Tests used:
[1] = tested on: Sox17 expression in human embryonic stem cell line H9; experiment: Dose titration secondary assay: Sox17 intensity, H9; type: cell-based
Description: (§1) It was important to confirm the activity of hits identified from primary screening and further analyze the range of activity by dose titration. New samples of a selective subset of primary screening hits were obtained as dry powders, solubilized to make fresh stock reagents, and diluted into secondary confirmation assays to evaluate effects on human embryonic stem cells.
(§2) Culture of two human embryonic stem cells (H1 and H9) was conducted as described in Example 1. Colonies of cells were maintained in an undifferentiated, pluripotent state on Matrigel™ ([…]) coated polystyrene plastic, using a 1:30 dilution of Matrigel™ in DMEM:F12 to coat the surface. Cells were split by enzymatic passage every four days on average. Passage was performed by exposing cell monolayers to a solution of collagenase (1 mg/ml; Sigma-Aldrich) for 10 to 60 minutes at 37° C. followed by gentle scraping with a pipette tip to recover cell clusters. Clusters were allowed to sediment by gravity, then washed to remove residual collagenase. Cell clusters were split at a 1:3 ratio for maintenance culture or a 1:1 ratio for subsequent assay. The human embryonic stem cell lines were maintained at less than passage 50 and routinely evaluated for normal karyotypic phenotype and absence of mycoplasma contamination.
(§3) Cell clusters of the H1 or H9 human embryonic stem cell lines used in the assay were evenly resuspended in culture medium and plated onto Matrigel™-coated 96-well Packard VIEWPLATES (PerkinElmer) in volumes of 100 μl/well. MEF conditioned medium supplemented with 8 ng/ml bFGF was used for initial plating and expansion. Daily feeding was conducted by aspirating spent culture medium from each well and replacing with an equal volume of fresh medium. Cultures were allowed to expand one to three days after plating prior to initiating assay. Plates were maintained at 37° C., 5% CO2 in a humidified box for the duration of assay.
(§4) A subset of hits resulting from primary screening was used for follow-up study and subsequent secondary assays. Twenty compounds available as dry powders were solubilized as 10 mM stocks in DMSO and stored dessicated at […] until use Immediately prior to assay, compound stocks were diluted 1:1000 to make 10 μM test compound in DMEM:F12 base medium (Invitrogen) supplemented with 0.5% FCS (HyClone) and 100 ng/ml Activin A (R&D Biosystems). This was further diluted two-fold in series to make a seven point dilution curve for each compound, also in DMEM:F12 base medium with 0.5% FCS and 100 ng/ml Activin A.
(§5) Assay was initiated by aspirating culture medium from cell monolayers in each well followed by three washes in PBS to remove residual growth factors and serum. Test volumes of 100 μl per well were added back containing medium with 0.5% FCS and different concentrations of inhibitor compounds with 100 ng/ml Activin A, without Wnt3a. Positive control wells contained the same base medium with 0.5% FCS and with 20 ng/ml Wnt3a (R&D Biosystems) in the absence of test compound. Negative control wells contained the same base medium with 0.5% FCS, in the absence of Activin A, Wnt3a, or test compound. Assay wells were aspirated and fed again with identical concentrations of test compound or control solutions on day 2 of assay. On days 3 and 4, all assay wells were aspirated and fed with DMEM:F12 supplemented with 2% FCS and 100 ng/ml Activin A in the absence of both test compound or Wnt3a. Parallel negative control wells were maintained on days 3 and 4 in DMEM:F12 base medium with 2% FCS.
(§6) At the end of culture, cells in 96-well plates were washed twice with PBS then fixed with 4% paraformaldehyde at room temperature for 20 minutes, washed three times more with PBS, and then permeabilized with 0.5% Triton X-100 for 20 minutes at room temperature. After fixing and permeabilizing, cells were washed again three times with PBS and then blocked with 4% chicken serum (Invitrogen) in PBS for 30 minutes at room temperature. […]

[2] = tested on: human embryonic stem cell line H9; experiment: Dose titration secondary assay: cell number, H9; type: cell-based
Description: as §1, §2, §3, §4, §5, §6

SMILES	Sox17 Intensity ([1]; 0.156 μM compound)	Sox17 Intensity ([1]; 0.313 μM compound)	Sox17 Intensity ([1]; 0.625 μM compound)	Sox17 Intensity ([1]; 1.25 μM compound)	Sox17 Intensity ([1]; 2.5 μM compound)	Sox17 Intensity ([1]; 5 μM compound)	Sox17 Intensity ([1]; 10 μM compound)	Cell number ([2]; 0.156 μM compound)	Cell number ([2]; 0.313 μM compound)	Cell number ([2]; 0.625 μM compound)	Cell number ([2]; 1.25 μM compound)	Cell number ([2]; 2.5 μM compound)	Cell number ([2]; 5 μM compound)	Cell number ([2]; 10 μM compound)
CCN1CCOCCOCCn2cc(c3ccccc32)C2=C(C(=O)NC2=O)c2cn(c3ccccc23)CC1 [Compound 103, 14-Ethyl-6,7,9,10,13,14,15,16-octahydro-12H,23H-5,26:17,22-di(metheno)dibenzo[k,q]pyrrolo[3,4-n][1,4,7,10,19]dioxatriacyclohenicosine-23,25(24H)-dione]	0.364	0.577	0.985	0.943	0.559	0.019	0.001	0.458	0.686	0.927	1.011	0.681	0.023	0.001
CN1CCN(C)CCn2cc(c3ccccc32)C2=C(C(=O)NC2=O)c2cn(c3ccccc23)CC1 [Compound 111, 8,11-Dimethyl-6,7,8,9,10,11,12,13-octahydro-20H-5,23:14,19-di(metheno)dibenzo[k,q]pyrrolo[3,4-n][1,4,7,10]tetraazacyclooctadecine-20,22(21H)-dione]	0.054	0.080	0.268	0.332	0.432	0.543	0.822	0.072	0.100	0.371	0.442	0.600	0.793	1.117
CN1CCOCCOCCN(C)CCn2cc(c3ccccc32)C2=C(C(=O)NC2=O)c2cn(c3ccccc23)CC1 [Compound 112, 12,21-Dimethyl-11,12,13,14,16,17,20,21,22,23-decahydro-1H,10H,19H-9,4:24,29-di(metheno)dibenzo[k,q]pyrrolo[3,4-n][1,4,7,10,19,22]dioxatetraazacyclotetracosine-1,3(2H)-dione]	0.186	0.342	0.563	0.936	1.146	1.127	0.759	0.276	0.437	0.686	1.039	1.197	1.281	1.022
O=C1NC(=O)C2=C1c1cn(c3ccccc13)CCOCCOCCN(Cc1cccs1)CCn1cc2c2ccccc21 [Compound 133, 14-(2-Thienylmethyl)-6,7,9,10,13,14,15,16-octahydro-12H,23H-5,26:17,22-di(metheno)dibenzo[k,q]pyrrolo[3,4-n][1,4,7,10,19]dioxatriazacyclohenicosine-23,25(24H)-dione]	0.149	0.398	0.678	1.110	0.857	0.194	0.129	0.206	0.540	0.899	1.477	1.368	1.067	0.785
O=C1NC(=O)C2=C1c1cn(c3ccccc13)CCOCCOCCN(Cc1cccc3ccccc13)CCn1cc2c2ccccc21 [Compound 136, 14-(Naphthalen-1-ylmethyl)-6,7,9,10,13,14,15,16-octahydro-12H,23H-5,26:17,22-di(metheno)dibenzo[k,q]pyrrolo[3,4-n][1,4,7,10,19]dioxatriazacyclohenicosine-23,25(24H)-dione]	0.125	0.129	0.212	0.202	0.209	0.154	0.129	0.147	0.192	0.267	0.334	0.388	0.320	0.208

From US20130337564A1, “Treatment of Pluripotent Cells” (Janssen Biotech, Inc., priority 2012, published 2013)
